Data from US8952199B2, “Methods of and formulations for reducing and inhibiting the growth of the concentration of microbes in water-based fluids and systems used with them” (Dow Global Technologies LLC, priority 2007, dated 2015).

What was measured:
Format in all cases: cell-based
[1] = system: mixed oil/gas field aerobic bacteria; assay: Biocidal efficacy against mixed oil/gas field aerobic bacteria in sterile salt solution, serial dilution count; details: for Concentration required to achieve at least 3 log reduction of aerobic bacteria: active, 37° C.
Description: A sterile salt solution (1.2490 g NaCl, 2.9290 g NaHCO3, 0.1910 g Na2CO3, 0.0060 g Na2SO4, 0.033 g CaCl2, and 0.0590 g MgCl2.6H2O in 1 L water) is contaminated with mixed oil/gas field aerobic bacteria at final bacterial concentrations of ˜10^7 CFU/mL. At day zero, either glutaraldehyde (UCARCIDE™ 250, 50% glutaraldehyde in water, The Dow Chemical Company) or THPS (AQUCAR™ THPS 75, 75% THPS in water, The Dow Chemical Company) is added and the solution mixed well to provide a desired final concentration. The solution is then incubated at 37° C. Bacterial populations are monitored over time using a serial dilution method. In experiments running over seven days, samples are reinoculated at day seven. […]

[2] = system: Aerobic bacteria (ATCC bacterial strains, oil/gas field aerobic bacteria, standard marine bacterium); assay: Concentration for at least 3 log reduction in 1 hr, aerobic bacteria (one value for ATCC strains, oil/gas field aerobic bacteria and standard marine bacterium); details: active, biocide alone
Description: A sterile salt solution (1.2490 g NaCl, 2.9290 g NaHCO3, 0.1910 g Na2CO3, 0.0060 g Na2SO4, 0.033 g CaCl2, and 0.0590 g MgCl2.6H2O in 1 L water) is contaminated with mixed oil/gas field aerobic bacteria at final bacterial concentrations of ˜10^7 CFU/mL. At day zero, either glutaraldehyde (UCARCIDE™ 250, 50% glutaraldehyde in water, The Dow Chemical Company) or THPS (AQUCAR™ THPS 75, 75% THPS in water, The Dow Chemical Company) is added and the solution mixed well to provide a desired final concentration. The solution is then incubated at 37° C. Bacterial populations are monitored over time using a serial dilution method. In experiments running over seven days, samples are reinoculated at day seven.
The testing protocols described in Examples 1 and 2, respectively, are used for oil/gas field aerobic bacteria and anaerobic sulfate reducing bacteria. For the standard bacterial strains Enterobacter aerogenes ATCC 13048, Salmonella choleraesius ATCC 10708, Pseudomonas aeruginosa ATCC 10145, Staphylococcus aureus ATCC 6538, Klebsiella pneumoniae ATCC 8308, Bacillus subtillus ATCC 8473, Escherichia coli ATCC 11229, and Pseudomonas aeruginosa ATCC 39451, separate experiments are performed as described in Example 1, but using a sterile 0.85% NaCl solution instead of the salt solution. For standard marine bacteria Pseudomonas sp. […]

[3] = system: mixed oil/gas field anaerobic sulfate reducing bacteria; assay: Biocidal efficacy against mixed oil/gas field anaerobic sulfate reducing bacteria in deaerated salt solution, serial dilution count; details: for Concentration required to achieve at lease 3 log bacterial reduction in 1 hr / Concentration required to achieve at least 3 log reduction of anaerobic sulfate reducing bacteria: active; for Concentration required to achieve at lease 3 log bacterial reduction in 1 hr: biocide alone, anaerobic oil/gas field SRB bacteria; for Concentration required to achieve at least 3 log reduction of anaerobic sulfate reducing bacteria: 37° C.
Description: A sterile salt solution as described in Example 1 is deaerated, then contaminated with mixed oil/gas field anaerobic sulfate reducing bacteria at final bacterial concentrations of ˜10^7 CFU/mL. At time=zero, either glutaraldehyde (UCARCIDE™ 250) or THPS (AQUCAR™ THPS 75) is added and the solution mixed well to provide a desired final concentration. The solutions are incubated at 37° C. in an anaerobic environment (Bactron III anaerobic chamber). Bacterial populations are monitored over time using a serial dilution method. In experiments running over seven days, samples are reinoculated at day seven.
The testing protocols described in Examples 1 and 2, respectively, are used for oil/gas field aerobic bacteria and anaerobic sulfate reducing bacteria. For the standard bacterial strains Enterobacter aerogenes ATCC 13048, Salmonella choleraesius ATCC 10708, Pseudomonas aeruginosa ATCC 10145, Staphylococcus aureus ATCC 6538, Klebsiella pneumoniae ATCC 8308, Bacillus subtillus ATCC 8473, Escherichia coli ATCC 11229, and Pseudomonas aeruginosa ATCC 39451, separate experiments are performed as described in Example 1, but using a sterile 0.85% NaCl solution instead of the salt solution. For standard marine bacteria Pseudomonas sp. ATCC 39451, experiments are performed as described in Examples 1 and 2, but at pH 8.0 using artificial sea water (24.6 g NaCl, 0.67 g KCl, 1.36 g CaCl2.2H2O, 6.29 g MgSO4.7H2O, 4.66 g MgCl2.6H2O and 0.18 g NaHCO3 in 1 L water). All data is collected at time=1 hour.

[4] = time interval 8 days, reinoculated at day seven
[5] = time interval 9 days, reinoculated at day seven

Compound | Concentration required to achieve at least 3 log reduction of aerobic bacteria ([1]; time interval 2 hrs) | Concentration required to achieve at least 3 log reduction of aerobic bacteria ([1]; time interval 4 hrs) | Concentration required to achieve at least 3 log reduction of aerobic bacteria ([1]; time interval 1 day) | Concentration required to achieve at least 3 log reduction of aerobic bacteria ([1]; time interval 3 days) | Concentration required to achieve at least 3 log reduction of aerobic bacteria ([1]; time interval 4 days) | Concentration required to achieve at least 3 log reduction of aerobic bacteria ([1]; time interval 7 days) | Concentration required to achieve at least 3 log reduction of aerobic bacteria [1, 4] | Concentration required to achieve at least 3 log reduction of aerobic bacteria [1, 5] | Concentration required to achieve at lease 3 log bacterial reduction in 1 hr [2] | Concentration required to achieve at lease 3 log bacterial reduction in 1 hr [3] | Concentration required to achieve at least 3 log reduction of anaerobic sulfate reducing bacteria ([3]; time interval 2 hrs) | Concentration required to achieve at least 3 log reduction of anaerobic sulfate reducing bacteria ([3]; time interval 4 hrs) | Concentration required to achieve at least 3 log reduction of anaerobic sulfate reducing bacteria ([3]; time interval 1 day) | Concentration required to achieve at least 3 log reduction of anaerobic sulfate reducing bacteria ([3]; time interval 2 days) | Concentration required to achieve at least 3 log reduction of anaerobic sulfate reducing bacteria ([3]; time interval 3 days) | Concentration required to achieve at least 3 log reduction of anaerobic sulfate reducing bacteria ([3]; time interval 4 days) | Concentration required to achieve at least 3 log reduction of anaerobic sulfate reducing bacteria ([3]; time interval 7 days) | Concentration required to achieve at least 3 log reduction of anaerobic sulfate reducing bacteria [3, 4] | Concentration required to achieve at least 3 log reduction of anaerobic sulfate reducing bacteria [3, 5] | other results
O=CCCCC=O [glutaraldehyde] | 25.0 ppm | 25.0 ppm | 6.3 ppm | 6.3 ppm | 6.3 ppm | 12.5 ppm | 25.0 ppm | 25.0 ppm | 44.49 ppm | 29.67 ppm | 12.5 ppm | 12.5 ppm | 12.5 ppm | 12.5 ppm | 25.0 ppm | 25.0 ppm | 25.0 ppm | 25.0 ppm | 50.0 ppm | Efficacy against aerobic bacteria, compared in words ([1]; glutaraldehyde versus hydroxymethyl-substituted phosphorus compounds): higher efficacy against aerobic bacteria; Speed of action on anaerobic sulfate reducing bacteria, compared in words ([3]; glutaraldehyde versus hydroxymethyl-substituted compounds): more rapid results
tetrakis(hydroxymethyl)phosphonium sulfate [THPS] | 25.0 ppm | 25.0 ppm | 12.5 ppm | 12.5 ppm | 25.0 ppm | 25.0 ppm | 100.0 ppm | 100.0 ppm | 44.49 ppm | 44.49 ppm | 50.0 ppm | 25.0 ppm | 25.0 ppm | 12.5 ppm | 6.3 ppm | 6.3 ppm | 6.3 ppm | 12.5 ppm | 25.0 ppm | 
